For one molecule, Kd and IC50 results are on record in patent publication US20120129842A1, “BISTHIAZOLE INHIBITORS OF PRO-MATRIX METALLOPROTEINASE ACTIVATION” (priority 2010, published 2012).

Structures are written as SMILES.

In assay [1] the target is T1, proMMP9(67-444;ΔFnII) (SEQ ID NO:5) (Homo sapiens, UniProt P14780, DEL216-390).
T1 construct: start methionine (N); made in house; host or cells: E. coli BL21(DE3) RIL
T1 sequence (P14780 with tags, fused parts or gaps DEL216-390): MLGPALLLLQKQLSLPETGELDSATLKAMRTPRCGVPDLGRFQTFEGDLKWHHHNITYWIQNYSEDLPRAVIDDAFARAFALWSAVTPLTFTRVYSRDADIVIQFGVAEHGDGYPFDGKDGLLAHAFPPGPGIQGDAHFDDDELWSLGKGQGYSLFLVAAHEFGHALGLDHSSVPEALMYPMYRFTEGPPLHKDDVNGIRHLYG
Kind of assay: ThermoFluor binding assay with proMMP9(67-444;ΔFnII). The settings on record: pH 7.0. In outline:
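Thermal shift binding with 3.5 μM proMMP9(67-444;ΔFnII) and 50 μM 1,8-ANS in 50 mM HEPES pH 7.0, 100 mM NaCl, 2.5 mM MgCl2, 300 μM CaCl2, 0.001% Tween-20, with serially diluted compound. Heated 40 to 90° C at 1° C/min; fluorescence-derived Tm fitted using DSC/ThermoFluor thermodynamic parameters.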

Assay [2] has as its target T2, full-length proMMP9(1-707) (SEQ ID NO:1) (Homo sapiens, UniProt P14780, R574P).
T2 construct: made in house; host or cells: HEK293 (proMMP9, secreted); E. coli (MMP3)
Kind of assay: proMMP9/MMP3 P126 Activation Assay. It counts as biochemical. The settings on record: 20 nM proMMP9, 20 nM MMP3, 80 min 37° C. The procedure:
The reaction volume was 50 μL. […] Reactivity of residual MMP3 towards P-126 substrate was minimal under these conditions.

Assay [3] has as its target T3, proMMP9(20-445;ΔFnII) (SEQ ID NO:6) (Homo sapiens, UniProt P14780, DEL216-390).
T3 construct: start methionine (N); made in house; host or cells: E. coli BL21(DE3) RIL
T3 sequence (P14780 with tags, fused parts or gaps DEL216-390): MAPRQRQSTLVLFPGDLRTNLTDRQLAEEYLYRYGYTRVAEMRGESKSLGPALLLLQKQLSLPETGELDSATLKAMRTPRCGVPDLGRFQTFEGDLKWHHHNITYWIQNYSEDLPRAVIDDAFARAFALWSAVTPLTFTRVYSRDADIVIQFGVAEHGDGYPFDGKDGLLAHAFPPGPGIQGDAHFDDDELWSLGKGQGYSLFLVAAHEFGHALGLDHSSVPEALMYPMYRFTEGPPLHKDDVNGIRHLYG
In words: ThermoFluor binding assay with proMMP9(20-445;ΔFnII). The settings on record: pH 7.0. In outline:
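proMMP9(20-445;ΔFnII) at 2.8 μM with 50 μM 1,8-ANS in 50 mM HEPES pH 7.0, 100 mM NaCl, 0.001% Tween-20, 2.5 mM MgCl2, 300 μM CaCl2; compounds serially diluted in DMSO. Heated 40–90 °C at 1 °C/min, fluorescence read at 500±25 nm. Tm fit by standard equations; binding fit using DSC/TF-derived thermodynamic parameters.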

T2 sequence (P14780 20-707 R574P): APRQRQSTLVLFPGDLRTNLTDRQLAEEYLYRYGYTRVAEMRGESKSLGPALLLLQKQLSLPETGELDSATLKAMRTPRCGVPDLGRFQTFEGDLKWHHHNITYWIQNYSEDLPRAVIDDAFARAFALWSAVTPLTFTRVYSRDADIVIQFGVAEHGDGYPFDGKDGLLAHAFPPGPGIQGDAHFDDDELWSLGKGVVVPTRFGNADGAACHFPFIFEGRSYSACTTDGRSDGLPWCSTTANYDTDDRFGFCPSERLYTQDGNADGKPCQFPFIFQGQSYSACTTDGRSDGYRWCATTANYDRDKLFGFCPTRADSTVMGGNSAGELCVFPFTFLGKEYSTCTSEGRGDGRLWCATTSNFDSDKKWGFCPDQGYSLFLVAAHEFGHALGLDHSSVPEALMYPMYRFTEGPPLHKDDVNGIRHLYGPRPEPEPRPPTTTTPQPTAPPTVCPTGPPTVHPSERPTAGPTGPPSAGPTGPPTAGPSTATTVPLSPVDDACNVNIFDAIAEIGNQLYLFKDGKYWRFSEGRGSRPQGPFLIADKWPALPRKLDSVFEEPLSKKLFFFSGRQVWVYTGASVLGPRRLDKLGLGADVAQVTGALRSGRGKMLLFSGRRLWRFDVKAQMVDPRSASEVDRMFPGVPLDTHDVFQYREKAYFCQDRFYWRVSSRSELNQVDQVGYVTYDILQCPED

As to `Cc1nc(C)c(-c2csc(Nc3cc(S(N)(=O)=O)ccc3OC(C)C)n2)s1` [Example 64, 3-(2′,4′-Dimethyl-[4,5′]bithiazolyl-2-ylamino)-4-isopropoxy-benzenesulfonamide.HBr], the dissociation constant Kd is 260 nM in assay [1] and 100 nM in assay [3]. The molecule also displayed an IC50 in assay [2] of 180 nM.

The Kd is the free concentration of one partner at which half of the binding sites on the other are occupied at equilibrium, for simple one-to-one binding. Low values mean higher affinity, high ones lower affinity. By IC50 is commonly meant the midpoint of a concentration-inhibition curve.
